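Protocol summary: plate cells (96-well), add compound at 5 concentrations, incubate 48 h, interpolate endpoints linearly. TGI marks complete inhibition of growth.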
These compounds were tested on NCI-H226 lung (assay: DTP human tumour cell line panel, 48 h).

Row | Structure (SMILES) | TGI
1 | O=c1c2cc(S(=O)(=O)O)ccc2nc(COc2ccc(Oc3ccc(Cl)cc3Cl)cc2)n1-c1ccc(Cl)cc1Oc1c(Cl)cccc1Cl | 49.6 µM
2 | C=C(CC[C@@H](C)[C@H]1CC[C@@]2(C)C3=C(CC[C@]12C)[C@@]1(C)CC[C@H](O)[C@@H](C)C1CC3)C(C)C (stereo not given in full) | 5.01 µM
3 | CC(=O)OCCOCn1cnc2c(Cl)nc(Cl)nc21 | 50.6 µM
4 | COc1ccc(N2C(=O)c3cc(C)cnc3S2(=O)=O)cc1 | > 100 µM
5 | CC(=O)OC1(C)C=CC(=O)C=C1 | 73 µM
6 | COc1cc(OC)c2c(=O)c(OC)c(-c3ccc4c(c3)OCO4)oc2c1 | > 100 µM
7 | CC1(C)CC(=O)C(/C=N/c2nc(-c3ccccc3)cs2)=C(O)C1 | > 100 µM
8 | NC(N)=N/N=C/c1c(-c2cccc([N+](=O)[O-])c2)nc2n1CCS2 | 39 µM
9 | Cn1c(=O)c2[nH]c(CCCCC(=O)O)nc2n(C)c1=O | > 100 µM
10 | O=C1C=CC=C/C1=C1\N=C(c2ccccc2OCC(=O)c2ccc(Br)cc2)SS1 | > 100 µM
11 | Cc1ccc(-c2c3nc(c(-c4ccc(C)cc4)c4ccc([nH]4)c(-c4ccc(OCC5COC(C)(C)O5)cc4)c4nc(c(-c5ccc(C)cc5)c5ccc2[nH]5)C=C4)C=C3)cc1 (stereo not given) | > 31.6 µM
12 | N#Cc1c(-c2ccccc2)cc(Nc2cccc(C(F)(F)F)c2)n2c1nc1ccccc12 | 4.74 µM
13 | COc1ccc(CCN2CCN(CCc3ccc(OC)cc3)CC2)cc1 | > 100 µM
14 | CCn1c2ccccc2n2c(=O)c3c(c(C#N)c12)CCCC3 | > 100 µM
15 | O=c1[nH]c(Nc2nc3ccccc3[nH]2)nc2c1CCC2 | > 100 µM
16 | Cc1nn(C(=O)Cc2ccccc2)c2c1C(c1ccc(N(C)C)cc1)SC(N)=N2 (stereo not given) | > 100 µM
17 | CCOP(=O)(O)C1C(CO)OC(n2ccc(=O)[nH]c2=O)C1O (stereo not given) | > 100 µM
18 | NC(=S)Nc1ccc(S(=O)(=O)Nc2ccc(S(N)(=O)=O)cc2)cc1 | > 100 µM
19 | O=C1NCCCNCCCNCCCNC(=O)c2cccc1n2 | > 100 µM
20 | CSC1=N/C(=C\c2ccccc2)C(=O)N1CN1CCCCC1 | > 100 µM
21 | CN(C)/C=N/S(=O)(=O)c1nn2c(C=O)c(-c3ccc(Cl)cc3)nc2s1 | 9.86 µM
22 | COc1ccc(C2=Nn3c(nnc(Cc4ccc(Cl)cc4)c3=O)SC2)cc1 | > 100 µM
23 | COC1(OC)CC(CO)(CNc2nc(N)nc(Cl)c2/C=N\O)C1 | > 100 µM
24 | CCOC(=O)C(Cc1cn(S(=O)(=O)c2ccccc2)c2ccccc12)(NC(C)=O)C(=O)OCC | 93.6 µM
25 | Cc1ccc2c(c1)C1(C)OC(C=CC1=O)O2 (stereo not given) | 7.94 µM

The compounds below were run on NCI/ADR-RES ovarian (assay: DTP human tumour cell line panel, 48 h).

Row | Structure (SMILES) | TGI
26 | O=c1c2cc(S(=O)(=O)O)ccc2nc(COc2ccc(Oc3ccc(Cl)cc3Cl)cc2)n1-c1ccc(Cl)cc1Oc1c(Cl)cccc1Cl | 77.4 µM
27 | C=C(CC[C@@H](C)[C@H]1CC[C@@]2(C)C3=C(CC[C@]12C)[C@@]1(C)CC[C@H](O)[C@@H](C)C1CC3)C(C)C (stereo not given in full) | 3.65 µM
28 | CC(=O)OCCOCn1cnc2c(Cl)nc(Cl)nc21 | 57.5 µM
29 | COc1ccc(N2C(=O)c3cc(C)cnc3S2(=O)=O)cc1 | > 100 µM
30 | CC(=O)OC1(C)C=CC(=O)C=C1 | 26.3 µM
31 | COc1cc(OC)c2c(=O)c(OC)c(-c3ccc4c(c3)OCO4)oc2c1 | > 100 µM
32 | CC1(C)CC(=O)C(/C=N/c2nc(-c3ccccc3)cs2)=C(O)C1 | > 100 µM
33 | NC(N)=N/N=C/c1c(-c2cccc([N+](=O)[O-])c2)nc2n1CCS2 | > 100 µM
34 | Cn1c(=O)c2[nH]c(CCCCC(=O)O)nc2n(C)c1=O | > 100 µM
35 | N#Cc1nc(C2=C(Cl)c3ccccc3OC2)[nH]c1C#N | > 100 µM
36 | O=C1C=CC=C/C1=C1\N=C(c2ccccc2OCC(=O)c2ccc(Br)cc2)SS1 | > 100 µM
37 | Cc1ccc(-c2c3nc(c(-c4ccc(C)cc4)c4ccc([nH]4)c(-c4ccc(OCC5COC(C)(C)O5)cc4)c4nc(c(-c5ccc(C)cc5)c5ccc2[nH]5)C=C4)C=C3)cc1 (stereo not given) | > 31.6 µM
38 | N#Cc1c(-c2ccccc2)cc(Nc2cccc(C(F)(F)F)c2)n2c1nc1ccccc12 | 7.15 µM
39 | COc1ccc(CCN2CCN(CCc3ccc(OC)cc3)CC2)cc1 | > 100 µM
40 | CCn1c2ccccc2n2c(=O)c3c(c(C#N)c12)CCCC3 | > 100 µM
41 | c1ccc(CSP234N5CCN2CCN3CCN4CC5)c(CSP234N5CCN2CCN3CCN4CC5)c1 | > 100 µM
42 | O=c1[nH]c(Nc2nc3ccccc3[nH]2)nc2c1CCC2 | > 100 µM
43 | NC(=S)Nc1ccc(S(=O)(=O)Nc2ccc(S(N)(=O)=O)cc2)cc1 | > 100 µM
44 | O=C1NCCCNCCCNCCCNC(=O)c2cccc1n2 | > 100 µM
45 | CSC1=N/C(=C\c2ccccc2)C(=O)N1CN1CCCCC1 | > 100 µM
46 | CN(C)/C=N/S(=O)(=O)c1nn2c(C=O)c(-c3ccc(Cl)cc3)nc2s1 | 10.6 µM
47 | COc1ccc(C2=Nn3c(nnc(Cc4ccc(Cl)cc4)c3=O)SC2)cc1 | 53.7 µM
48 | COC1(OC)CC(CO)(CNc2nc(N)nc(Cl)c2/C=N\O)C1 | > 100 µM
49 | Cc1ccc2c(c1)C1(C)OC(C=CC1=O)O2 (stereo not given) | 0.0653 µM

What follows are compounds tested on SR leukemia (assay: DTP human tumour cell line panel, 48 h).

Row | Structure (SMILES) | TGI
50 | O=c1c2cc(S(=O)(=O)O)ccc2nc(COc2ccc(Oc3ccc(Cl)cc3Cl)cc2)n1-c1ccc(Cl)cc1Oc1c(Cl)cccc1Cl | 96.7 µM
51 | C=C(CC[C@@H](C)[C@H]1CC[C@@]2(C)C3=C(CC[C@]12C)[C@@]1(C)CC[C@H](O)[C@@H](C)C1CC3)C(C)C (stereo not given in full) | 2.71 µM
52 | CC(=O)OCCOCn1cnc2c(Cl)nc(Cl)nc21 | 16.1 µM
53 | O=C1O/C(=C(/Cl)c2cccc3ccccc23)c2ccccc21 | > 100 µM
54 | COc1ccc(N2C(=O)c3cc(C)cnc3S2(=O)=O)cc1 | > 100 µM
55 | CC(=O)OC1(C)C=CC(=O)C=C1 | > 100 µM

Source: PubChem BioAssay (NCI)
